Data: ChEMBL document CHEMBL4270590, “Azulene-based compounds for targeting orexin receptors” (Eur J Med Chem, 2018)
Active and inactive are the calls of the source. No cut-off for these calls is given here.

Legend:
[1] = target: T1, Orexin/Hypocretin receptor type 1 (Homo sapiens) (UniProt O43613); test: Displacement of [125I]-orexin-A from human OX1 receptor expressed in CHOK1 cells at 10 uM incubated for 10 mins and measured after 90 mins by liquid scintillation counting method relative to control; format: cell-based
T1 sequence (whole entry): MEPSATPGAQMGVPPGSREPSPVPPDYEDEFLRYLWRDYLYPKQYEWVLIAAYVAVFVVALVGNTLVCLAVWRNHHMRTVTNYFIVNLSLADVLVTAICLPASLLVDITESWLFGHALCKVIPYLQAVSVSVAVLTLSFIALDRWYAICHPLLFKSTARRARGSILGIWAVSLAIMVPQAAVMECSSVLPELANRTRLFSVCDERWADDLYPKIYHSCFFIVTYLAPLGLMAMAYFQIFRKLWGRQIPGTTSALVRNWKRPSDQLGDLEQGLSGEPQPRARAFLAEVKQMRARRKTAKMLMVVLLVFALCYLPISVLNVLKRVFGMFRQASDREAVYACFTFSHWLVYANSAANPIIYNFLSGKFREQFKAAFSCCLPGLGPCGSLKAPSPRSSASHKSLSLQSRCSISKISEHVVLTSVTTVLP

[2] = target: T2, Orexin receptor type 2 (Homo sapiens) (UniProt O43614); test: Displacement of [125I]-orexin-A from human OX2 receptor expressed in CHOK1 cells at 10 uM incubated for 10 mins and measured after 90 mins by liquid scintillation counting method relative to control; format: cell-based
T2 sequence (whole entry): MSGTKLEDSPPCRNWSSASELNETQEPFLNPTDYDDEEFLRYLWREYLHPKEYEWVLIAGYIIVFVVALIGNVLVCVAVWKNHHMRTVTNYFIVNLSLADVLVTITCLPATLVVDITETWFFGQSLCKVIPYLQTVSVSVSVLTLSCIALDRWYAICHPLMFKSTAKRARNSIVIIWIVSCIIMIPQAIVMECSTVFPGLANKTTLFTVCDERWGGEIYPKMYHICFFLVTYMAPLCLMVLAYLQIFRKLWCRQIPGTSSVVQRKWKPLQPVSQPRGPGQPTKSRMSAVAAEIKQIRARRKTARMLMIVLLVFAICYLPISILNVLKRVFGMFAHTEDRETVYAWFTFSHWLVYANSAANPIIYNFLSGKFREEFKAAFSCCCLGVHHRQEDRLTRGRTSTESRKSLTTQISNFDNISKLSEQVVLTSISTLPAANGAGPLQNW

[3] = target: T1, Orexin/Hypocretin receptor type 1 (Homo sapiens); test: Agonist activity at human OX1 receptor expressed in CHOK1 cells assessed as increase in calcium accumulation at 10 uM incubated for 30 mins measured for 150 secs by calcium-4 dye based FLIPR assay relative to orexin-A; format: functional, cell-based
[4] = target: T2, Orexin receptor type 2 (Homo sapiens); test: Agonist activity at human OX2 receptor expressed in CHOK1 cells assessed as increase in calcium accumulation at 10 uM incubated for 30 mins measured for 150 secs by calcium-4 dye based FLIPR assay relative to orexin-A; format: functional, cell-based
[5] = target: T1, Orexin/Hypocretin receptor type 1 (Homo sapiens); test: Allosteric agonist activity at human OX1 receptor expressed in CHOK1 cells assessed as potentiation of orexin-A induced calcium accumulation at 10 uM preincubated for 30 mins followed by orexin-A addition and measured for 150 secs by calcium-4 dye based FLIPR assay relative to control; format: functional, cell-based
[6] = target: T2, Orexin receptor type 2 (Homo sapiens); test: Allosteric agonist activity at human OX2 receptor expressed in CHOK1 cells assessed as potentiation of orexin-A induced calcium accumulation at 10 uM preincubated for 30 mins followed by orexin-A addition and measured for 150 secs by calcium-4 dye based FLIPR assay relative to control; format: functional, cell-based
CHO-K1 = test: Effect on ATP-induced intracellular calcium accumulation in CHOK1 cells expressing human OXR at 10 uM incubated for 30 mins and measured for 150 secs by calcium-4 dye based FLIPR assay; format: functional, cell-based; details: Cricetulus griseus
[7] = target: T1, Orexin/Hypocretin receptor type 1 (Homo sapiens); test: Agonist activity at human OX1 receptor expressed in CHOK1 cells assessed as increase in calcium accumulation at 10 uM incubated for 30 mins measured for 150 secs in presence of OX1R antagonist SB-334867 by calcium-4 dye based FLIPR assay; format: functional, cell-based
[8] = target: T2, Orexin receptor type 2 (Homo sapiens); test: Agonist activity at human OX2 receptor expressed in CHOK1 cells assessed as increase in calcium accumulation at 10 uM incubated for 30 mins measured for 150 secs in presence of OX2R antagonist TCS-1102 by calcium-4 dye based FLIPR assay; format: functional, cell-based
[9] = target: T3, Orexin/Hypocretin receptor type 1 (Homo sapiens, UniProt O43613); test: Antagonist activity at human OX1 receptor expressed in CHOK1 cells assessed as inhibition of orexin-A-induced calcium accumulation preincubated for 30 mins followed by orexin-A addition measured for 150 secs by calcium-4 dye based FLIPR assay; format: functional, cell-based; details: read-out: Ki(app)
T3 sequence (O43613 whole entry): T1 sequence (whole entry)

Orexin receptor type 2 = target: T4, Orexin receptor type 2 (Homo sapiens, UniProt O43614); test: Antagonist activity at human OX2 receptor expressed in CHOK1 cells assessed as inhibition of orexin-A-induced calcium accumulation preincubated for 30 mins followed by orexin-A addition measured for 150 secs by calcium-4 dye based FLIPR assay; format: functional, cell-based; details: read-out: Ki(app)
T4 sequence (O43614 whole entry): T2 sequence (whole entry)

[10] = Colloidal aggregating behavior of the compound at 1 to 30 uM by nephelometric method; format: physicochemical
[11] = target: T1, Orexin/Hypocretin receptor type 1 (Homo sapiens); test: Allosteric agonist activity at human OX1 receptor expressed in CHOK1 cells assessed as potentiation of orexin-A induced calcium accumulation preincubated for 30 mins followed by orexin-A addition and measured for 150 secs by calcium-4 dye based FLIPR assay; format: functional, cell-based
[12] = target: T2, Orexin receptor type 2 (Homo sapiens); test: Allosteric agonist activity at human OX2 receptor expressed in CHOK1 cells assessed as potentiation of orexin-A induced calcium accumulation preincubated for 30 mins followed by orexin-A addition and measured for 150 secs by calcium-4 dye based FLIPR assay; format: functional, cell-based
[13] = Solubility of the compound in water; format: physicochemical; details: buffer

inhibition [1]	inhibition [2]	Emax [3]	Emax [4]	fold change (FC) [5]	fold change (FC) [6]	SMILES	Activity (CHO-K1)	other results
18.2%	35.6%	0.46%	-2.71%			O=C(OCc1ccccc1)Oc1ccc2ccc(Cl)ccc1-2		
25%	37.2%	3.06%	2.26%			COC(=O)c1ccc2ccc(C=O)c-2cc1		
7.2%	28.9%	4.15%	4.92%	1.64	0.79	COC(=O)c1ccc2ccc(C(=O)c3ccccc3)c-2cc1	inactive	
	-4.3%	5.01%	11%	1.86	0.97	COC(=O)Cc1ccc2ccc(C(=O)c3ccccc3)c-2cc1	inactive	Activity [7]: inactive; Activity [8]: inactive
10.4%	27%	0.69%	-0.14%			COC(=O)c1cccc2c(C(=O)c3ccccc3)cc(C(=O)c3ccc(C(Cl)(Cl)Cl)cc3)c-2c1		
8%	24.3%	0.73%	-2.13%			COC(=O)CCC(=O)Oc1ccc2ccc(Cl)ccc1-2		
8.4%	19.1%	1.49%	-0.24%			CCOc1ccc(-c2cc(C(=O)c3ccccc3)c3ccc(C(=O)OC)ccc2-3)cc1		
-4.5%	36%	1.62%	-1.01%			CC(C)(C)OC(=O)NCC(=O)Oc1ccc2ccc(Cl)ccc1-2		
13.6%	18%	0.42%	1.32%			NC(=O)c1ccc2ccc(C(=O)c3ccccc3)c-2cc1		
-2.4%	32.3%	0.6%	-2.65%			O=C(Oc1ccc2ccc(Cl)ccc1-2)c1cccnc1		
10.4%	27%	0.69%	-0.14%			COC(=O)c1cccc2c(C(=O)c3ccccc3)cc(C(=O)c3ccc(C(F)(F)F)cc3)c-2c1		
	-5.4%	1.17%	-0.25%	1.99	1.02	COC(=O)c1ccc2c(I)cc(C(=O)c3ccccc3)c-2cc1	inactive	Activity [11]: Dose-dependent effect; Activity [12]: Dose-dependent effect; solubility [13]: Insoluble
		0.28%	0.05%	1.68	1.06	COC(=O)Cc1ccc2c(C(=O)c3ccccc3)cc(C(=O)c3ccccc3)c-2cc1	inactive	
8.6%	11.2%	0.22%	-1.06%	1.5	0.98	O=C(O)Cc1ccc2ccc(C(=O)c3ccc(C(F)(F)F)cc3)c-2cc1	inactive	
9.8%	33.2%	0.91%	-2.7%			O=C(Oc1ccc2ccc(Cl)ccc1-2)c1cccs1		
11%	32.9%	2.16%	2.29%	1.52	0.98	O=C(O)c1ccc2ccc(C(=O)c3ccccc3)c-2cc1	inactive	
	27%	-1.39%	-2.09%	1.42	0.75	O=C(O)c1ccc2c(C(=O)c3ccccc3)cc(C(=O)c3ccccc3)c-2cc1	inactive	
		6.13%	12.4%	1.59	0.86	COC(=O)c1ccc2ccc(C(=O)c3ccc(C(F)(F)F)cc3)c-2cc1	inactive	Activity [7]: inactive; Activity [8]: inactive
23%	39.9%	2.35%	0.4%			COC(=O)c1cc(C=O)c2ccc(/C=C/c3cnc[nH]3)ccc1-2		
19.9%	25.6%	-1.38%	-3.18%			O=C(O)c1cccc2c(C(=O)c3ccccc3)cc(C(=O)c3ccc(C(Cl)(Cl)Cl)cc3)c-2c1		
6.1%	16.7%	0.64%	1.71%			NC(=O)c1ccc2c(C=O)cc(-c3ccccc3)c-2cc1		
	1%	1.09%	2.96%	1.53	0.9	O=C(O)c1ccc2ccc(C(=O)c3ccc(C(F)(F)F)cc3)c-2cc1	inactive	
		-0.56%	-1.51%	1.97	0.88	COC(=O)c1ccc2c(C(=O)c3ccccc3)cc(C(=O)c3ccccc3)c-2cc1	inactive	Activity [11]: Dose-dependent effect; Activity [12]: Dose-dependent effect; solubility [13]: Insoluble
18.3%	26.4%	-1.38%	-3.18%			O=C(O)c1cccc2c(C(=O)c3ccccc3)cc(C(=O)c3ccc(C(F)(F)F)cc3)c-2c1		
16.2%	21.5%	0.8%	-0.21%			O=Cc1cc(-c2ccccc2)c2ccc(C(=O)O)ccc1-2		
0.1%	34.3%	0.08%	-3.3%			O=C(Oc1ccc2ccc(Cl)ccc1-2)c1ccccc1		
8.5%	1.8%	0.8%	-0.27%			COC(=O)c1ccc2c(C=O)cc(-c3ccccc3)c-2cc1		
38.3%	31%	0.61%	-0.44%			Cc1ccc2ccc(C(=O)c3ccc(C(F)(F)F)cc3)c-2cc1		
37.8%	44.1%	1.75%	3.47%			O=Cc1ccc2ccc(C(=O)O)ccc1-2		

SMILES	inhibition [1]	inhibition [2]	Emax [3]	Emax [4]	fold change (FC) [5]	fold change (FC) [6]	Activity (CHO-K1)	other results
CCOc1ccc(-c2cc(C(=O)c3ccccc3)c3ccc(C(=O)O)ccc2-3)cc1			-0.17%	-0.99%	1.01	0.76	inactive	Ki [9]: 3.1 to 7.5 µM; Ki (Orexin receptor type 2): 3.2 to 4.9 µM; Activity [10]: Not Active
COC(=O)c1cc(CN2CCOCC2)c2ccc(Cl)ccc1-2	24.5%	46.7%	0.42%	-0.98%				Ki [9]: 5.4 to 7.6 µM; Ki (Orexin receptor type 2): 4.3 to 8.6 µM; Activity [10]: Not Active
